US20260137701A1, “CHOLESTENOIC ACID (CA) AND A SULFATED DERIVATIVE THEREOF, 3[BETA]-SULFATE-5-CHOLESTENOIC ACID (CA3S), AS ENDOGENOUS EPIGENETIC REGULATORS” (priority 2022, published 2026)

System: HepG-2 cells
Test: mRNA sequencing, differential expression genes
Assay type: cell-based, human
Procedure: After culturing HepG-2 cells in DMEM medium with HG for 72 hours followed by treating with 20 μM CA for 0, 3, 6, 12, and 24 hours, genomic DNA from 5×10^7 cells were extracted using QIAamp® DNA Mini Kit (QIAGEN, Hilden, Germany). Each sample, 6 μg, was sent to CD Genomics Co., Ltd (New York, USA) for analysis of WGBS. Total RNA was isolated using the Promega SV total RNA isolation system (Madison, WI, USA) with DNase treatment. Each sample, 2 μg, were sent to CD Genomics Co., Ltd (New York, USA) for analysis of RNA sequencing. The same samples, 2 μg, was used for the first-strand cDNA synthesis as recommended by the manufacturer (Invitrogen, Carlsbad, CA). RT-qPCR was performed using SYBR Green as the indicator on ABI 7500 Fast Real-Time PCR System (Applied Biosystems, Foster City, CA). Amplifications of j-actin or GAPDH were used as internal controls. Relative messenger RNA (mRNA) expression was quantified with the comparative cycle threshold (Ct) method using a sutiable primer set and was expressed as 2-ΔΔCt as described previously.
Total RNA was extracted and purified from HepG-2 cells using SV total RNA isolation system (Promega, Madison, WI). Messenger RNA was purified from total RNA using poly-T oligo-attached magnetic beads. After fragmentation, the first strand cDNA was synthesized using random hexamer primers, followed by the second strand cDNA synthesis using either dUTP for directional library or dTTP for non-directional library. The library was checked with Qubit and real-time PCR for quantification and bioanalyzer for size distribution detection. Quantified libraries will be pooled and sequenced on Illumina® platforms, according to effective library concentration and data amount. Raw data (raw reads) of fastq format were first processed through in-house perl scripts. In this step, clean data (clean reads) were obtained by removing reads containing adapter, reads containing ploy-N and low-quality reads from raw data. At the same time, Q20, Q30 and GC content of the clean data were calculated. All the downstream analyses were based on clean data with high quality. The clean data were aligned to reference genome (GRCh37) using Hisat2 v2.0.5 software. Differential expression genes (DEGs) were performed using the DESeq2 R package (1.20.0). DAVID software (website located at david.ncifcrf.gov/) was used to test the statistical enrichment of DMR related genes in the GO and KEGG pathways.

CC(CCC[C@@H](C)[C@H]1CC[C@H]2[C@@H]3CC=C4C[C@@H](O)CC[C@]4(C)[C@H]3CC[C@]12C)C(=O)O (stereo partly drawn) [CA, 3β-hydroxy-5-cholestenoic acid]
Fold Change ABCF1 (down regulated gene) (20 μM CA, 6 hours): −1.35 fold
Fold Change ACTA1 (up regulated gene) (20 μM CA, 6 hours): 1.32 fold
Fold Change ACTN4 (up regulated gene) (20 μM CA, 6 hours): 3.26 fold
Fold Change ANGPTL8 (down regulated gene) (20 μM CA, 6 hours): −1.77 fold
Fold Change ARHGAP17 (up regulated gene) (20 μM CA, 6 hours): 2.50 fold
Fold Change ATG16L1 (down regulated gene) (20 μM CA, 6 hours): −1.32 fold
Fold Change C2 (down regulated gene) (20 μM CA, 6 hours): −1.14 fold
Fold Change C5orf51 (down regulated gene) (20 μM CA, 6 hours): −1.06 fold
Fold Change CD99 (up regulated gene) (20 μM CA, 6 hours): 3.60 fold
Fold Change COG5 (down regulated gene) (20 μM CA, 6 hours): −1.44 fold
Fold Change CPSF1 (down regulated gene) (20 μM CA, 6 hours): −4.45 fold
Fold Change CUTA (up regulated gene) (20 μM CA, 6 hours): 1.76 fold
Fold Change CYP1A1 (up regulated gene) (20 μM CA, 6 hours): 1.97 fold
Fold Change CYP51A1 (down regulated gene) (20 μM CA, 6 hours): −1.25 fold
Fold Change DCAF11 (down regulated gene) (20 μM CA, 6 hours): −1.74 fold
Fold Change DLG5 (up regulated gene) (20 μM CA, 6 hours): 1.44 fold
Fold Change DNHD1 (down regulated gene) (20 μM CA, 6 hours): −1.21 fold
Fold Change EEF1A1P13 (up regulated gene) (20 μM CA, 6 hours): 2.82 fold
Fold Change EEF1B2 (up regulated gene) (20 μM CA, 6 hours): 1.29 fold
Fold Change EHMT2 (up regulated gene) (20 μM CA, 6 hours): 1.16 fold
Fold Change FBL (down regulated gene) (20 μM CA, 6 hours): −1.87 fold
Fold Change FDFT1 (down regulated gene) (20 μM CA, 6 hours): −1.30 fold
Fold Change FLII (up regulated gene) (20 μM CA, 6 hours): 2.04 fold
Fold Change FST (up regulated gene) (20 μM CA, 6 hours): 1.25 fold
Fold Change FZD1 (up regulated gene) (20 μM CA, 6 hours): 1.06 fold
Fold Change GBA (up regulated gene) (20 μM CA, 6 hours): 2.25 fold
Fold Change GBP1 (up regulated gene) (20 μM CA, 6 hours): 1.37 fold
Fold Change GFUS (down regulated gene) (20 μM CA, 6 hours): −2.73 fold
Fold Change GMPR2 (up regulated gene) (20 μM CA, 6 hours): 3.88 fold
Fold Change GNL1 (up regulated gene) (20 μM CA, 6 hours): 1.59 fold
Fold Change GTF2H1 (up regulated gene) (20 μM CA, 6 hours): 1.85 fold
Fold Change GTPBP6 (down regulated gene) (20 μM CA, 6 hours): −2.08 fold
Fold Change HMGCR (down regulated gene) (20 μM CA, 6 hours): −1.55 fold
Fold Change HMGCS1 (down regulated gene) (20 μM CA, 6 hours): −2.12 fold
Fold Change HSD17B7 (down regulated gene) (20 μM CA, 6 hours): −1.05 fold
Fold Change HSPA1A (up regulated gene) (20 μM CA, 6 hours): 1.22 fold
Fold Change HSPA1B (up regulated gene) (20 μM CA, 6 hours): 1.16 fold
Fold Change IBTK (down regulated gene) (20 μM CA, 6 hours): −2.44 fold
Fold Change ID3 (down regulated gene) (20 μM CA, 6 hours): −2.65 fold
Fold Change IDI1 (down regulated gene) (20 μM CA, 6 hours): −1.86 fold
Fold Change INPP5K (up regulated gene) (20 μM CA, 6 hours): 1.04 fold
Fold Change IPO4 (down regulated gene) (20 μM CA, 6 hours): −1.51 fold
Fold Change IRF9 (up regulated gene) (20 μM CA, 6 hours): 1.42 fold
Fold Change LDLR (down regulated gene) (20 μM CA, 6 hours): −1.46 fold
Fold Change LFNG (up regulated gene) (20 μM CA, 6 hours): 1.02 fold
Fold Change LINC02119 (down regulated gene) (20 μM CA, 6 hours): −1.39 fold
Fold Change LOC729973 (down regulated gene) (20 μM CA, 6 hours): −1.08 fold
Fold Change LOC107985276 (down regulated gene) (20 μM CA, 6 hours): −1.32 fold
Fold Change LOC112268009 (up regulated gene) (20 μM CA, 6 hours): 1.19 fold
Fold Change LPCAT1 (down regulated gene) (20 μM CA, 6 hours): −1.43 fold
Fold Change MCRIP1 (up regulated gene) (20 μM CA, 6 hours): 2.17 fold
Fold Change MINCR (up regulated gene) (20 μM CA, 6 hours): 1.24 fold
Fold Change MSMO1 (down regulated gene) (20 μM CA, 6 hours): −2.30 fold
Fold Change MT1E (up regulated gene) (20 μM CA, 6 hours): 1.81 fold
Fold Change MT1F (up regulated gene) (20 μM CA, 6 hours): 2.51 fold
Fold Change MT1G (up regulated gene) (20 μM CA, 6 hours): 2.43 fold
Fold Change MT1X (up regulated gene) (20 μM CA, 6 hours): 2.15 fold
Fold Change MT2A (up regulated gene) (20 μM CA, 6 hours): 1.44 fold
Fold Change MTCH2 (down regulated gene) (20 μM CA, 6 hours): −2.50 fold
Fold Change MTMR11 (up regulated gene) (20 μM CA, 6 hours): 1.48 fold
Fold Change MVD (down regulated gene) (20 μM CA, 6 hours): −1.20 fold
Fold Change MVK (down regulated gene) (20 μM CA, 6 hours): −1.57 fold
Fold Change MYEOV (down regulated gene) (20 μM CA, 6 hours): −1.08 fold
Fold Change NDUFS1 (up regulated gene) (20 μM CA, 6 hours): 1.45 fold
Fold Change NEK10 (up regulated gene) (20 μM CA, 6 hours): 1.06 fold
Fold Change NEU4 (down regulated gene) (20 μM CA, 6 hours): −1.99 fold
Fold Change NOP9 (down regulated gene) (20 μM CA, 6 hours): −2.89 fold
Fold Change NPIPA2 (up regulated gene) (20 μM CA, 6 hours): 1.32 fold
Fold Change NUP160 (down regulated gene) (20 μM CA, 6 hours): −1.36 fold
Fold Change PAK1 (down regulated gene) (20 μM CA, 6 hours): −1.14 fold
Fold Change PAK1IP1 (down regulated gene) (20 μM CA, 6 hours): −3.71 fold
Fold Change PALLD (up regulated gene) (20 μM CA, 6 hours): 1.02 fold
Fold Change PCSK9 (down regulated gene) (20 μM CA, 6 hours): −1.08 fold
Fold Change PFKFB4 (down regulated gene) (20 μM CA, 6 hours): −1.30 fold
Fold Change PHF1 (up regulated gene) (20 μM CA, 6 hours): 1.42 fold
Fold Change PNPLA3 (down regulated gene) (20 μM CA, 6 hours): −1.42 fold
Fold Change POLR3E (down regulated gene) (20 μM CA, 6 hours): −1.12 fold
Fold Change PRPF31 (up regulated gene) (20 μM CA, 6 hours): 1.38 fold
Fold Change PRSS8 (down regulated gene) (20 μM CA, 6 hours): −1.46 fold
Fold Change PSMB3 (down regulated gene) (20 μM CA, 6 hours): −4.67 fold
Fold Change PSME2 (up regulated gene) (20 μM CA, 6 hours): 2.33 fold
Fold Change PTEN (down regulated gene) (20 μM CA, 6 hours): −1.64 fold
Fold Change PTGDR2 (up regulated gene) (20 μM CA, 6 hours): 1.58 fold
Fold Change PUF60 (down regulated gene) (20 μM CA, 6 hours): −2.01 fold
Fold Change RBFOX2 (down regulated gene) (20 μM CA, 6 hours): −1.14 fold
Fold Change RCBTB2 (up regulated gene) (20 μM CA, 6 hours): 1.18 fold
Fold Change RDH11 (down regulated gene) (20 μM CA, 6 hours): −1.06 fold
Fold Change RN7SK (down regulated gene) (20 μM CA, 6 hours): −1.58 fold
Fold Change RNF187 (up regulated gene) (20 μM CA, 6 hours): 1.25 fold
Fold Change RPS9 (down regulated gene) (20 μM CA, 6 hours): −1.14 fold
Fold Change RPS14P1 (up regulated gene) (20 μM CA, 6 hours): 1.50 fold
Fold Change RPS17 (up regulated gene) (20 μM CA, 6 hours): 3.79 fold
Fold Change RRN3 (down regulated gene) (20 μM CA, 6 hours): −1.05 fold
Fold Change RUSC1-AS1 (down regulated gene) (20 μM CA, 6 hours): −1.37 fold
Fold Change SBNO2 (up regulated gene) (20 μM CA, 6 hours): 1.13 fold
Fold Change SERTAD1 (up regulated gene) (20 μM CA, 6 hours): 1.06 fold
Fold Change SGK1 (up regulated gene) (20 μM CA, 6 hours): 1.03 fold
Fold Change SLC39A7 (up regulated gene) (20 μM CA, 6 hours): 2.59 fold
Fold Change SLC39A10 (down regulated gene) (20 μM CA, 6 hours): −1.10 fold
Fold Change SNHG32 (down regulated gene) (20 μM CA, 6 hours): −1.62 fold
Fold Change SPC25 (down regulated gene) (20 μM CA, 6 hours): −1.51 fold
Fold Change SPSB2 (up regulated gene) (20 μM CA, 6 hours): 1.18 fold
Fold Change SQLE (down regulated gene) (20 μM CA, 6 hours): −1.73 fold
Fold Change SQSTM1 (down regulated gene) (20 μM CA, 6 hours): −1.29 fold
Fold Change STARD4 (down regulated gene) (20 μM CA, 6 hours): −1.26 fold
Fold Change STAT5A (up regulated gene) (20 μM CA, 6 hours): 1.09 fold
Fold Change SYBU (up regulated gene) (20 μM CA, 6 hours): 1.09 fold
Fold Change SYNPO (up regulated gene) (20 μM CA, 6 hours): 1.14 fold
Fold Change TBCE (down regulated gene) (20 μM CA, 6 hours): −1.67 fold
Fold Change TINF2 (down regulated gene) (20 μM CA, 6 hours): −1.58 fold
Fold Change TJP1 (up regulated gene) (20 μM CA, 6 hours): 1.02 fold
Fold Change TPM1-AS (up regulated gene) (20 μM CA, 6 hours): 1.08 fold
Fold Change TRNH (down regulated gene) (20 μM CA, 6 hours): −1.08 fold
Fold Change U2AF1 (up regulated gene) (20 μM CA, 6 hours): 1.40 fold
Fold Change UGT2A3 (up regulated gene) (20 μM CA, 6 hours): 1.83 fold
Fold Change VARS1 (up regulated gene) (20 μM CA, 6 hours): 3.03 fold
Fold Change VPS11 (up regulated gene) (20 μM CA, 6 hours): 1.96 fold
Fold Change YWHAE (down regulated gene) (20 μM CA, 6 hours): −1.84 fold
number of DEGs regulated by CA, total (3 hours post treatment): 109
number of DEGs, down-regulated (3 hours post treatment): 50
number of DEGs, up-regulated (3 hours post treatment): 59
number of DEGs regulated by CA, total (6 hours): 120
number of DEGs, down-regulated (6 hours): 61
number of DEGs, up-regulated (6 hours): 59
number of DEGs regulated by CA, total (12 hours): 164
number of DEGs, down-regulated (12 hours): 80
number of DEGs, up-regulated (12 hours): 84
number of DEGs regulated by CA, total (24 hours): 245
number of DEGs, down-regulated (24 hours): 112
number of DEGs, up-regulated (24 hours): 133
